Reference: patent publication US6890951B2, “Treatment of addiction and addiction-related behavior” (Brookhaven Science Associates LLC, priority 1998, dated 2005)
Entries after “also recorded” stand apart in the source; their conditions may differ.

Key:
male Sprague-Dawley rats = assay: Locomotor activity (Photobeam Activity System); assay type: in vivo; settings: GVG 150 mg/kg or 300 mg/kg i.p., 2.5 hours before
Protocol: Animals were prehandled for 5 minutes each day for one week prior to the experiment to reduce handling stress. […] The animals were transported to the testing area one hour before each experiment. […] The locomotor cages themselves are 41.3×41.3×30.5 cm clear acrylic cages. The electronic system (Photobeam Activity system, San Diego Instruments, San Diego, Calif.) used to monitor locomotor activity consists of 16 infrared beams projecting across the cages from left to right and 16 beams from front to back. All the infrared beams are approximately 0.39 cm from the floor.
In this example the procedures outlined in Section 4 and 5 of Materials and Methods were followed.

[1] = test system: extracellular DA in the NACC; assay: In vivo microdialysis: nicotine-induced increases in extracellular NACC DA; design: species or system rats
From the text: All animals were used under an IACUC-approved protocol and with strict adherence to the NIH guidelines. Adult male Sprague-Dawley rats (200-300 g, Taconic Farms), housed in the animals care facility under 12:12 light/dark conditions, were placed into 6 groups (n=5-9), anesthetized and siliconized guide cannulae were stereotactically implanted into the right NACC (2.0 mm anterior and 1.0 mm lateral to bregms, and 7.0 mm ventral to the cortical surface) at least 4 days prior to study. […] Animals were placed in bowls, and probes were inserted and flushed with ACSF overnight. On the day of the study, a minimum of three samples were injected to determine baseline stability. Samples were collected for 20 min. and injected on-line (CMA/160, BAS). The average Dopamine concentration of these three stable samples was defined as control (100%), and all subsequent treatment values were transformed to a percentage of that control. […] The high performance liquid chromatography (HPLC) system consists of a BAS reverse-phase column (3.0 μC-18), a BAS LC-4C electrochemical transducer with a dual/glassy carbon electrode set at 650 mV, a computer that analyzes data on-line using a commercial software package (Chromograph Bioanalytical Systems), and a dual pen chart recorder. The mobile phase (flow rate 1.0 ml/min) consisted of 7.0% methanol, 50 mM sodium phosphate monobasic, 1.0 mM sodium octyl sulfate, and 0.1 mm EDNA, pH 4.0. […] Upon completion of the study, animals were decapitated and frozen sections were obtained for probe placement verification.
The open circles are control animals.
In all studies, animals were placed in the microdialysis bowls the night before the experiment and artificial cerebrospinal fluid (ACSF) was perfused through the microdialysis probes at a flow rate of 2.0 μl/min. At the end of each study, animals were sacrificed and their brains were removed and sectioned for probe placement verification.

[2] = test system: extracellular DA in the NACC; assay: Microdialysis: ethanol-induced increases in NACC DA; assay type: in vivo, rats; settings: Rattus norvegicus
Protocol: Ethanol at a dose of 1.0 g/kg i.p. was administered to the animals.

NAc DA = assay: Microdialysis: cocaine/heroin (speedball) induced increases in NAc DA; assay type: in vivo, rats
Protocol: In vivo microdialysis studies were performed using adult male Sprague-Dawley rats (Taconic Farms) as detailed previously (Morgan and Dewey, 1998). Cocaine, a dopamine reuptake inhibitor, (n=6-8) was administered (i.p.) at a dose of 20 mg/kg while heroin, an indirect dopamine releaser, (n=6-8) was administered (i.p.) at a dose of 0.5 mg/kg. In studies designed to investigate the synergistic effects of a cocaine/heroin combination (n=6-8), both drugs were administered at the identical dose used in the single drug studies. Alone cocaine produced a marked elevation in extracellular DA of approximately 380% above baseline values, 60 minutes following administration. DA returned to baseline within 120 minutes. In contrast, heroin increased NAc DA by only 70%, 60 minutes following administration, returning to baseline within 140 minutes. However, when combined, the two drugs produced an increase in NAc DA of approximately 1000%, 180 minutes following administration that had not returned to baseline values by 200 minutes after reaching peak values (FIG. 9).

male F344 rats = settings: cited from earlier work
rhesus monkeys = settings: cited from earlier work
Sprague-Dawley rats = assay: Gross locomotor activity during microdialysis (infrared motion sensor); settings: GVG, during the 2.5 hour pretreatment interval
From the text: In parallel to the quantitative estimates of dopamine concentration, the locomotor response of these animals to stimulant administration was simultaneously quantified using an infrared motion sensor. This infrared optical proximity detector monitored movement of the gimbaled arm, an integral component of the freely moving system. The digital output of the detector was interfaced with an IBM personal computer and programmed to count both positive and negative arm deflections. […] Locomotor activity was then expressed as the number of deflections per sample interval.

With `C=CC(N)CCC(=O)O` (racemic) [GVG, 4-amino-5-hexanoic acid] the “locomotor activity compared to saline pretreated controls” value (male Sprague-Dawley rats) was “did not alter locomotor activity”, the “basal DA levels prior to nicotine administration” value ([1]; GVG 75 mg/kg) was “no effect on basal DA levels” and the “effect on nicotine-induced increases in DA” value ([1]; GVG 75 mg/kg i.p. 2.5 hours before nicotine 0.4 mg/kg) was “no effect”. The “effect on nicotine-induced increases in DA” value ([1]; GVG 100 mg/kg i.p. 2.5 hours before nicotine 0.4 mg/kg) was “completely abolished; also recorded: completely blocked”, the “effect on nicotine-induced increases in DA” value ([1]; GVG 100 mg/kg i.p. 2.5 hours before nicotine 0.4 mg/kg, listed as vigabatrin) was “completely blocked” and the “effect on nicotine-induced increases in DA” value ([1]; GVG 150 mg/kg i.p. 2.5 hours before nicotine) was “blocks; also recorded: completely abolished”. For the same compound, the “basal DA levels prior to nicotine administration” value ([1]; GVG 90, 100 or 150 mg/kg) was “lowered basal DA levels”, the inhibition at 90 mg/kg ([1]; Rattus norvegicus, ip, GVG 90 mg/kg i.p. 2.5 hours before nicotine 0.4 mg/kg) was roughly 50% and the “effect on nicotine-induced increases in extracellular DA” value ([1]; chronically nicotine treated, GVG 100 mg/kg 2.5 hours prior to nicotine) was “completely abolished”. The “nicotine-induced increase of extracellular DA above baseline” value ([1]; chronically nicotine treated, GVG 100 mg/kg 12 hours prior to challenge) was “approximately 25%”, the inhibition at 300 mg/kg [2] was roughly 50% and the inhibition at 100 mg/kg ([2]; read-out: inhibition of alcohol's ability to increase nucleus accumbens dopamine) was roughly 40%. The “temporal aspects of the response to cocaine/heroin” value (NAc DA; GVG 300 mg/kg i.p.) was “did not effect the temporal aspects of the response”, the “increase in NAc DA after cocaine/heroin challenge” value (NAc DA; GVG 300 mg/kg i.p. 2.5 hours prior to challenge, 180 minutes following challenge) was “approximately 500%” and the “synergistic effects of the combined drug challenge (absolute magnitude)” value (NAc DA; GVG 300 mg/kg i.p. 2.5 hours prior to cocaine/heroin) was “completely abolished the synergistic effects”. The “decrease in brain stimulation reward thresholds produced by 2.5 and 5 mg/kg i.p. cocaine” value (male F344 rats; GVG 400 mg/kg) was “significantly antagonized”, the “brain stimulation reward thresholds” value (male F344 rats; GVG alone) was “dose-dependent increase” and the “withdrawal signs or symptoms” value (rhesus monkeys; animals withdrawn from chronic GVG treatment) was “do not exhibit withdrawal signs or symptoms”. For the same compound, the “self-administration of GVG” value (rhesus monkeys; rhesus monkeys) was “not self-administered” and the gross locomotor activity (Sprague-Dawley rats) was “did not alter gross locomotor activity”.
